Measurements published in patent US9714231B2, “Pyrrolidine GPR40 modulators” (BRISTOL-MYERS SQUIBB COMPANY, priority 2012, dated 2017).
Counter-ions that a name gives are not always drawn.

Target: human GPR40 (Homo sapiens, UniProt O14842)
Test: FDSS-based intracellular calcium assay (Human GRP40 in vitro assay)
Assay type: cell-based
Parameters: 3xFLAG; expressed in transfected cells
Conditions: cells expressing GPR40, intracellular Ca2+ response, FDSS reader; read-out: hGPR40 EC50
Procedure, shortened: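 GPR40-expressing cells, plated overnight in serum-free phenol red-free DMEM, loaded with Fluo-3 in HBSS with 1.7 mM probenecid for 30 min at 37° C. Compounds in DMSO, diluted in assay buffer, added as 3× solutions; intracellular Ca^2+ response read on FDSS.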

Sequence of human GPR40 (O14842 whole entry): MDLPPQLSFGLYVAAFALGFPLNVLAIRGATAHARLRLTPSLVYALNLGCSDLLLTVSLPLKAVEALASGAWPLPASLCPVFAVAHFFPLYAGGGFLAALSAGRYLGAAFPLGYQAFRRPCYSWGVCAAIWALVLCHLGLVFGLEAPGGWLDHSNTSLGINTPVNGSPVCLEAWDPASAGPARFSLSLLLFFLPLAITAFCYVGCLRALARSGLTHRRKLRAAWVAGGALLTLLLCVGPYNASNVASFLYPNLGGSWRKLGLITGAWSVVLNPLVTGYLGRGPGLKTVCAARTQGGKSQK

Compared with `CCOc1ccc(F)c(N2CCC(Oc3ccc(N4C[C@H](OC)[C@@H](C5CC5)[C@@H]4CC(=O)O)cc3)CC2)c1` [Example 90, 2-((2S,3S,4R)-3-Cyclopropyl-1-(4-((1-(5-ethoxy-2-fluorophenyl)piperidin-4-yl)oxy)phenyl)-4-methoxypyrrolidin-2-yl)acetic acid, TFA], `CCOc1ccc(F)c(N2CCC(Oc3ccc(N4C[C@H](OC)[C@@H](C5CCC5)[C@@H]4CC(=O)O)cc3)CC2)c1` [Example 92, 2-((2S,3S,4R)-3-Cyclobutyl-1-(4-((1-(5-ethoxy-2-fluorophenyl)piperidin-4-yl)oxy)phenyl)-4-methoxypyrrolidin-2-yl)acetic acid, TFA] is 19-fold higher in EC50: 190 nM for the first, 3700 nM for the second. The first is the more potent here.

`COc1cc(N2CCC(Oc3ccc(N4C[C@H](OC)C[C@@H]4CC(=O)O)cc3)C(CC#N)C2)c(Cl)cn1` (stereo partly drawn) [Example 93, 2-((2R,4R)-1-(4-(((3,4-trans)-1-(5-Chloro-2-methoxypyridin-4-yl)-3-(cyanomethyl)piperidin-4-yl)oxy)phenyl)-4-methoxypyrrolidin-2-yl)acetic acid, TFA] and `COc1cc(N2CCC(Oc3ccc(N4C[C@H](OC)C[C@@H]4CC(=O)O)cc3)C(Cn3cnnn3)C2)c(Cl)cn1` (stereo partly drawn) [Example 94, 2-((2R,4R)-1-(4-(((3,4-trans)-3-((1H-Tetrazol-1-yl)methyl)-1-(5-chloro-2-methoxypyridin-4-yl)piperidin-4-yl)oxy)phenyl)-4-methoxypyrrolidin-2-yl)acetic acid, TFA] are within 1.5-fold of each other in EC50: 2300 nM for the first, 3400 nM for the second.

Going from `CCOc1ccc(F)c(N2CCC(Oc3ccc(N4C[C@H](OC)[C@@H](C)[C@@H]4CC(=O)O)cn3)CC2)c1` [Example 95, 2-((2S,3S,4R)-1-(6-((1-(5-Ethoxy-2-fluorophenyl)piperidin-4-yl)oxy)pyridin-3-yl)-4-methoxy-3-methylpyrrolidin-2-yl)acetic acid, TFA] to `CCOc1ccc(F)c(N2CCC(Oc3ccc(N4C[C@H](OC)[C@@H](C)[C@@H]4CC(=O)O)cc3F)CC2)c1` [Example 101, 2-((2S,3S,4R)-1-(4-((1-(5-Ethoxy-2-fluorophenyl)piperidin-4-yl)oxy)-3-fluorophenyl)-4-methoxy-3-methylpyrrolidin-2-yl)acetic acid], the EC50 falls from 510 nM to 180 nM (2.8-fold).

`COc1cc(N2CCC(Oc3ccc(N4C[C@H](OC)[C@@H](C)[C@@H]4CC(=O)O)cn3)CC2)c(Cl)cn1` [Example 97, 2-((2S,3S,4R)-1-(6-((1-(5-Chloro-2-methoxypyridin-4-yl)piperidin-4-yl)oxy)pyridin-3-yl)-4-methoxy-3-methylpyrrolidin-2-yl)acetic acid] and `COc1cc(N2CCC(Oc3ccc(N4C[C@H](OC)[C@@H](C)[C@@H]4CC(=O)O)c(F)c3)CC2)c(Cl)cn1` [Example 112, 2-((2S,3S,4R)-1-(4-((1-(5-Chloro-2-methoxypyridin-4-yl)piperidin-4-yl)oxy)-2-fluorophenyl)-4-methoxy-3-methylpyrrolidin-2-yl)acetic acid] are within 1.5-fold of each other in EC50: 110 nM for the first, 130 nM for the second.

Compared with `CCOc1ccc(F)c(N2CCC(Oc3ccc(N4C[C@H](OC)[C@@H](C)[C@@H]4CC(=O)O)cc3F)C(C)C2)c1` (stereo partly drawn) [Example 100, 2-((2S,3S,4R)-1-(4-(((3,4-trans)-1-(5-Ethoxy-2-fluorophenyl)-3-methylpiperidin-4-yl)oxy)-3-fluorophenyl)-4-methoxy-3-methylpyrrolidin-2-yl)acetic acid], `CCOc1ccc(F)c(N2CCC(Oc3ccc(N4C[C@H](OC)[C@@H](C)[C@@H]4CC(=O)O)c(F)c3)C(C)C2)c1` (stereo partly drawn) [Example 113, 2-((2S,3S,4R)-1-(4-(((3,4-trans)-1-(5-Ethoxy-2-fluorophenyl)-3-methylpiperidin-4-yl)oxy)-2-fluorophenyl)-4-methoxy-3-methylpyrrolidin-2-yl)acetic acid] is 2.6-fold higher in EC50: 110 nM for the first, 290 nM for the second.

`CCCCCO[C@@H]1C[C@H](CC(=O)O)N(c2ccc(OC3CCN(c4cc(OCC)ccc4F)CC3)cc2)C1` [Example 103, 2-((2R,4R)-1-(4-((1-(5-Ethoxy-2-fluorophenyl)piperidin-4-yl)oxy)phenyl)-4-(pentyloxy)pyrrolidin-2-yl)acetic acid, TFA] and `CCOc1ccc(F)c(N2CCC(Oc3ccc(N4C[C@H](OC)C[C@@H]4CC(=O)O)cc3)CC2)c1` [Example 107, 2-((2R,4R)-1-(4-((1-(5-Ethoxy-2-fluorophenyl)piperidin-4-yl)oxy)phenyl)-4-methoxypyrrolidin-2-yl)acetic acid, TFA] are within 1.5-fold of each other in EC50: 120 nM for the first, 160 nM for the second.

First: CCOc1ccc(F)c(N2CCC(Oc3ccc(N4CC[C@@H](C)[C@@H]4CC(=O)O)cc3)CC2)c1 [Example 104, 2-((2S,3R)-1-(4-((1-(5-Ethoxy-2-fluorophenyl)piperidin-4-yl)oxy)phenyl)-3-methylpyrrolidin-2-yl)acetic acid, TFA]
Second: CCOc1ccc(F)c(N2CCC(Oc3ccc(N4C[C@H](C#N)C[C@@H]4CC(=O)O)cc3)CC2)c1 [Example 130, 2-((2R,4R)-4-Cyano-1-(4-((1-(5-ethoxy-2-fluorophenyl)piperidin-4-yl)oxy)phenyl)pyrrolidin-2-yl)acetic acid, TFA]
The EC50 of the first is 8.4-fold lower: 250 nM for the first, 2100 nM for the second. The first is the more potent here.

First: COc1cc(N2CCC(Oc3ccc(N4CC[C@@H](C)[C@@H]4CC(=O)O)cn3)C(C)C2)c(Cl)cn1 (stereo partly drawn) [Example 105, 2-((2S,3R)-1-(6-(((3,4-trans)-1-(5-Chloro-2-methoxypyridin-4-yl)-3-methylpiperidin-4-yl)oxy)pyridin-3-yl)-3-methylpyrrolidin-2-yl)acetic acid]
Second: COc1cc(N2CCC(Oc3ccc(N4C[C@H](C)[C@@H](C)[C@@H]4CC(=O)O)cn3)C(C)C2)c(Cl)cn1 (stereo partly drawn) [Example 106, 2-((2S,3R,4R)-1-(6-(((3,4-trans)-1-(5-Chloro-2-methoxypyridin-4-yl)-3-methylpiperidin-4-yl)oxy)pyridin-3-yl)-3,4-dimethylpyrrolidin-2-yl)acetic acid]
The EC50 of the first is 2.8-fold lower: 60 nM for the first, 170 nM for the second. The first is the more potent here.

`COc1cc(N2CCC(Oc3ccc(N4CC(C)(C)C[C@@H]4CC(=O)O)cn3)C(C)C2)c(Cl)cn1` (stereo partly drawn) [Example 109, 2-((R)-1-(6-(((3,4-trans)-1-(5-Chloro-2-methoxypyridin-4-yl)-3-methylpiperidin-4-yl)oxy)pyridin-3-yl)-4,4-dimethylpyrrolidin-2-yl)acetic acid, TFA] and `COc1cc(N2CCC(Oc3ccc(N4C[C@H](C)C[C@@H]4CC(=O)O)cn3)C(C)C2)c(Cl)cn1` (stereo partly drawn) [Example 110, 2-((2R,4R)-1-(6-(((3,4-trans)-1-(5-Chloro-2-methoxypyridin-4-yl)-3-methylpiperidin-4-yl)oxy)pyridin-3-yl)-4-methylpyrrolidin-2-yl)acetic acid] are within 1.5-fold of each other in EC50: 230 nM for the first, 220 nM for the second.

Going from `COc1cc(N2CCC(Oc3ccc(N4C[C@H](OC)[C@@H](C)[C@@H]4CC(=O)O)c(F)c3)C(C)C2)c(Cl)cn1` (stereo partly drawn) [Example 111, 2-((2S,3S,4R)-1-(4-(((3,4-trans)-1-(5-Chloro-2-methoxypyridin-4-yl)-3-methylpiperidin-4-yl)oxy)-2-fluorophenyl)-4-methoxy-3-methylpyrrolidin-2-yl)acetic acid] to `COc1cc(N2CCC(Oc3ccc(N4C[C@@H](OC)[C@H](C)[C@H]4CC(=O)O)cc3)C(C)C2)c(Cl)cn1` (stereo partly drawn) [Example 131, 2-((2R,3R,4S)-1-(4-(((3,4-trans)-1-(5-Chloro-2-methoxypyridin-4-yl)-3-methylpiperidin-4-yl)oxy)phenyl)-4-methoxy-3-methylpyrrolidin-2-yl)acetic acid], the EC50 rises from 110 nM to 4700 nM (43-fold). The first is the more potent here.

First: CCOc1ccc(F)c(N2CCC(Oc3ccc(N4C[C@H](OC)[C@@H](C)[C@@H]4CC(=O)O)c(F)c3)CC2)c1 [Example 114, 2-((2S,3S,4R)-1-(4-((1-(5-Ethoxy-2-fluorophenyl)piperidin-4-yl)oxy)-2-fluorophenyl)-4-methoxy-3-methylpyrrolidin-2-yl)acetic acid]
Second: CCOc1ccc(F)c(N2CCC(Oc3ccc(N4C[C@H](c5cnn(C)c5)C[C@@H]4CC(=O)O)cc3)CC2)c1 [Example 126, 2-((2R,4S)-1-(4-((1-(5-Ethoxy-2-fluorophenyl)piperidin-4-yl)oxy)phenyl)-4-(1-methyl-1H-pyrazol-4-yl)pyrrolidin-2-yl)acetic acid, TFA]
The EC50 of the first is 2.5-fold lower: 320 nM for the first, 810 nM for the second.

Compared with `CCOc1ccc(F)c(N2CCC(Oc3ccc(N4C[C@H](c5cccc(C(F)(F)F)c5)C[C@@H]4CC(=O)O)cc3)CC2)c1` [Example 122, 2-((2R,4S)-1-(4-((1-(5-Ethoxy-2-fluorophenyl)piperidin-4-yl)oxy)phenyl)-4-(3-(trifluoromethyl)phenyl)pyrrolidin-2-yl)acetic acid, TFA], `CCOc1ccc(F)c(N2CCC(Oc3ccc(N4C[C@H](Oc5ccc(C#N)cc5)CC4CC(=O)O)cc3)CC2)c1` (stereo partly drawn) [Example 128, 2-((4R)-4-(4-Cyanophenoxy)-1-(4-((1-(5-ethoxy-2-fluorophenyl)piperidin-4-yl)oxy)phenyl)pyrrolidin-2-yl)acetic acid, HCl] is 5.4-fold higher in EC50: 240 nM for the first, 1300 nM for the second.

`COc1cc(N2CCC(Oc3ccc(N4C[C@H](C(F)(F)F)C[C@@H]4CC(=O)O)cc3F)C(C)C2)c(Cl)cn1` (stereo partly drawn) [Example 134, 2-((2R,4R)-1-(4-(((3,4-trans)-1-(5-Chloro-2-methoxypyridin-4-yl)-3-methylpiperidin-4-yl)oxy)-3-fluorophenyl)-4-(trifluoromethyl)pyrrolidin-2-yl)acetic acid] and `COc1cc(N2CCC(Oc3ccc(N4C[C@H](C(F)(F)F)C[C@@H]4CC(=O)O)cc3Cl)C(C)C2)c(Cl)cn1` (stereo partly drawn) [Example 136, 2-((2R,4R)-1-(3-Chloro-4-(((3,4-trans)-1-(5-chloro-2-methoxypyridin-4-yl)-3-methylpiperidin-4-yl)oxy)phenyl)-4-(trifluoromethyl)pyrrolidin-2-yl)acetic acid] are within 1.5-fold of each other in EC50: 580 nM for the first, 500 nM for the second.

`COc1cc(N2CCC(Oc3ccc(N4C[C@H](C(F)(F)F)C[C@@H]4CC(=O)O)c(Cl)c3)C(C)C2)c(Cl)cn1` (stereo partly drawn) [Example 135, 2-((2R,4R)-1-(2-Chloro-4-(((3,4-trans)-1-(5-chloro-2-methoxypyridin-4-yl)-3-methylpiperidin-4-yl)oxy)phenyl)-4-(trifluoromethyl)pyrrolidin-2-yl)acetic acid, HCO2H] showed an EC50 of 400 nM.
